System: Human Umbilical Vein Endothelial Cell (HUVEC)
Experiment: HUVEC vasculogenesis/angiogenesis assay (HUVEC co-cultured with human fibroblasts, CD31 labeling of vessels)
Type: cell-based
Conditions: for all three vessel parameters relative to the control wells: 11 days, p<0.05, one way ANOVA
Description: Studies were conducted to determine the effects of anti-LOXL2 antibody AB0023 in an in vitro vasculogenesis/angiogenesis assay. For this purpose, a dose range of AB0023 was tested alongside VEGF (an angiogenesis promoter), suramin (an angiogenesis inhibitor) and media alone in a HUVECs based in vitro system. The assay was run for 11 days with media changes on days 1, 4, 7 and 9. After 11 days, wells were fixed with 70% ethanol and vessels were tested for expression of CD31, an endothelial marker. Images of 4 random fields per well were taken and the number of branch points, number of vessels and total vessel length was calculated for each well using a specialist software analysis package.
At this point (day 1), fresh endothelial cell growth medium containing the test item and controls, as detailed in Table 1, was added to wells at 0.5 ml per well. Test item and controls were added in duplicate or triplicate according to Table 1, and media-only added in triplicate acted as baseline endothelial growth control. The plate was then cultured at 37° C. and 5% CO2. On days 4, 7 and 9 the medium was removed from all wells and carefully replaced with 0.5 ml of fresh medium containing the test item and controls as detailed in Table 1. On day 11, the plates were fixed and labeled for CD31 as detailed below. On each day of the experiment the plate was visualized using an inverted microscope to ensure normal growth cells and no contamination.
After 11 days, plates were fixed by carefully aspirating medium from wells, washed with 1 ml PBS per well, and then 1 ml ice cold 70% ethanol was added for 30 minutes at room temperature. Fixative was then carefully removed and the wells were incubated with 0.5 ml mouse anti-human CD31 antibody diluted 1:400 in PBS containing 1% BSA and incubated for 60 minutes at 37° C. Wells were then washed three times with 1 ml PBS followed by incubation with 0.5 ml goat anti-mouse IgG alkaline phosphatase conjugated secondary antibody diluted 1:500 in PBS containing 1% BSA for 60 minutes at 37° C. Wells were washed a further three times with 1 ml PBS prior to incubation with 0.5 ml freshly prepared and filtered BCIP/NBT substrate for 10 minutes at 37° C. Wells were then carefully washed three times with 1 ml distilled water and left to air dry overnight.
Digital images of each well were obtained using a Nikon Coolpix camera on a Leica inverted microscope at 10× magnification. Four random fields per well were imaged, producing 96 images in total. Images were then converted to BMP files and imported into an image analysis package to measure the number of vessel branches, number of vessels and total vessel length. This is performed by thresholding the image so that only CD31-stained vessels were detected, which the software then skeletonized to produce single pixel width vessels. From these, individual vessel length, total vessel length and number of vessel branch points were determined. The data were then exported to Excel to calculate mean and standard deviation for each data set. Basic statistics were carried out using a one-way ANOVA.

VEGF
branching relative to the control group: significant increase
vessel formation relative to control wells (VEGF 2 ng/ml (FIG. 4)): increase in vessel formation
all three vessel parameters relative to the control wells (VEGF 2 ng/ml): increase

Cc1ccc(C(=O)Nc2ccc(S(=O)(=O)O)c3cc(S(=O)(=O)O)cc(S(=O)(=O)O)c23)cc1NC(=O)c1cccc(NC(=O)Nc2cccc(C(=O)Nc3cc(C(=O)Nc4ccc(S(=O)(=O)O)c5cc(S(=O)(=O)O)cc(S(=O)(=O)O)c45)ccc3C)c2)c1 [Suramin, suramin]
number of branches relative to the control group (20 μM suramin, p<0.05 one way ANOVA): significant reduction
vessel formation relative to control wells (suramin 20 μM (FIG. 2)): decrease in vessel formation
all three vessel parameters relative to the control wells (suramin 20 μM): significant decrease
